From ChEMBL document CHEMBL5376003, “Structure-Activity Relationship of FL118 Platform Position 7 Versus Position 9-Derived Compounds and Their Mechanism of Action and Antitumor Activity” (J Med Chem, 2023)

How the values were obtained:
Assay type in all cases: functional, cell-based
A549 = test: Growth inhibition of human A549 cells incubated for 48 hrs by MTT reagent based ELISA reader analysis; conditions: A549, 48 h
HeLa = test: Growth inhibition of human HeLa cells incubated for 48 hrs by MTT reagent based ELISA reader analysis
MCF7 = test: Growth inhibition of human MCF7 cells incubated for 48 hrs by MTT reagent based ELISA reader analysis; conditions: MCF7, 48 h
HepG2 = test: Growth inhibition of human HepG2 cells incubated for 48 hrs by MTT reagent based ELISA reader analysis; conditions: HepG2, 48 h
HCT-116 = test: Growth inhibition of human HCT-116 cells incubated for 48 hrs by MTT reagent based ELISA reader analysis; conditions: HCT-116, 48 h

CC[C@@]1(O)C(=O)OCc2c1cc1n(c2=O)Cc2c-1nc1cc3c(cc1c2-c1cc(C)cc(C)c1)OCO3
IC50 (A549): 0.036 µM | IC50 (HeLa): 0.0336 µM | IC50 (MCF7): 0.0868 µM | IC50 (HepG2): 0.0454 µM | IC50 (HCT-116): 0.064 µM

CC[C@@]1(O)C(=O)OCc2c1cc1n(c2=O)Cc2c-1nc1cc3c(cc1c2-c1cc(OC)c(OC)c(OC)c1)OCO3
IC50 (A549): 0.14 µM | IC50 (HeLa): 0.2 µM | IC50 (MCF7): 0.101 µM | IC50 (HepG2): 0.738 µM | IC50 (HCT-116): 0.0396 µM

CCSc1ccc(-c2c3c(cc4nc5c(cc24)Cn2c-5cc4c(c2=O)COC(=O)[C@]4(O)CC)OCO3)cc1
IC50 (A549): 0.211 µM | IC50 (HeLa): > 1 µM | IC50 (MCF7): > 1 µM | IC50 (HepG2): 0.401 µM | IC50 (HCT-116): 0.62 µM

CC[C@@]1(O)C(=O)OCc2c1cc1n(c2=O)Cc2c-1nc1cc3c(cc1c2-c1cccc(SC)c1)OCO3
IC50 (A549): 0.132 µM | IC50 (HeLa): 0.125 µM | IC50 (MCF7): 0.0346 µM | IC50 (HepG2): 0.0786 µM | IC50 (HCT-116): 0.0461 µM

CC[C@@]1(O)C(=O)OCc2c1cc1n(c2=O)Cc2c-1nc1cc3c(cc1c2-c1ccc([Si](C)(C)C)cc1)OCO3
IC50 (A549): 0.321 µM | IC50 (HeLa): > 1 µM | IC50 (MCF7): 0.863 µM | IC50 (HepG2): 0.074 µM | IC50 (HCT-116): 0.0563 µM

CC[C@@]1(O)C(=O)OCc2c1cc1n(c2=O)Cc2cc3c(-c4ccc(C)c(C)c4)c4c(cc3nc2-1)OCO4
IC50 (A549): 0.259 µM | IC50 (HeLa): > 1 µM | IC50 (MCF7): > 1 µM | IC50 (HepG2): > 1 µM | IC50 (HCT-116): 0.773 µM

CCCCOc1ccc(-c2c3c(nc4cc5c(cc24)OCO5)-c2cc4c(c(=O)n2C3)COC(=O)[C@]4(O)CC)cc1
IC50 (A549): > 1 µM | IC50 (HeLa): > 1 µM | IC50 (MCF7): > 1 µM | IC50 (HepG2): > 1 µM | IC50 (HCT-116): 0.235 µM

CC[C@@]1(O)C(=O)OCc2c1cc1n(c2=O)Cc2cc3c(-c4ccc(OC)cc4)c4c(cc3nc2-1)OCO4
IC50 (A549): 0.163 µM | IC50 (HeLa): > 1 µM | IC50 (MCF7): 0.161 µM | IC50 (HepG2): 0.527 µM | IC50 (HCT-116): 0.163 µM

CC[C@@]1(O)C(=O)OCc2c1cc1n(c2=O)Cc2c-1nc1cc3c(cc1c2-c1ccc(SC)cc1)OCO3
IC50 (A549): 0.0273 µM | IC50 (HeLa): 0.0587 µM | IC50 (MCF7): 0.0534 µM | IC50 (HepG2): 0.0519 µM | IC50 (HCT-116): 0.0618 µM

CC[C@@]1(O)C(=O)OCc2c1cc1n(c2=O)Cc2c-1nc1cc3c(cc1c2-c1cccc(C)c1)OCO3
IC50 (A549): 0.115 µM | IC50 (HeLa): 0.144 µM | IC50 (MCF7): 0.0386 µM | IC50 (HepG2): 0.134 µM | IC50 (HCT-116): 0.0218 µM

CC[C@@]1(O)C(=O)OCc2c1cc1n(c2=O)Cc2cc3c(-c4cc(OC)c(OC)c(OC)c4)c4c(cc3nc2-1)OCO4
IC50 (A549): 1 µM | IC50 (HeLa): 0.14 µM | IC50 (MCF7): 0.757 µM | IC50 (HepG2): 0.952 µM | IC50 (HCT-116): 0.137 µM

CCOc1cccc(-c2c3c(nc4cc5c(cc24)OCO5)-c2cc4c(c(=O)n2C3)COC(=O)[C@]4(O)CC)c1
IC50 (A549): 0.0294 µM | IC50 (HeLa): 0.0522 µM | IC50 (MCF7): 0.0478 µM | IC50 (HepG2): 0.28 µM | IC50 (HCT-116): 0.0559 µM

CC[C@@]1(O)C(=O)OCc2c1cc1n(c2=O)Cc2cc3c(-c4ccc(C(C)C)cc4)c4c(cc3nc2-1)OCO4
IC50 (A549): 0.765 µM | IC50 (HeLa): > 1 µM | IC50 (MCF7): 0.8 µM | IC50 (HepG2): > 1 µM | IC50 (HCT-116): > 1 µM

CCCCc1ccc(-c2c3c(nc4cc5c(cc24)OCO5)-c2cc4c(c(=O)n2C3)COC(=O)[C@]4(O)CC)cc1
IC50 (A549): 0.0549 µM | IC50 (HeLa): 0.115 µM | IC50 (MCF7): 0.0605 µM | IC50 (HepG2): > 1 µM | IC50 (HCT-116): 0.513 µM

CCc1ccc(-c2c3c(cc4nc5c(cc24)Cn2c-5cc4c(c2=O)COC(=O)[C@]4(O)CC)OCO3)cc1
IC50 (A549): 0.265 µM | IC50 (HeLa): > 1 µM | IC50 (MCF7): > 1 µM | IC50 (HepG2): > 1 µM | IC50 (HCT-116): 0.697 µM

CC[C@@]1(O)C(=O)OCc2c1cc1n(c2=O)Cc2cc3c(-c4cccc(SC)c4)c4c(cc3nc2-1)OCO4
IC50 (A549): 0.133 µM | IC50 (HeLa): 0.0323 µM | IC50 (MCF7): 0.0985 µM | IC50 (HepG2): 0.19 µM | IC50 (HCT-116): 0.134 µM

CC[C@@]1(O)C(=O)OCc2c1cc1n(c2=O)Cc2c-1nc1cc3c(cc1c2-c1cccc(OC)c1)OCO3
IC50 (A549): 0.0214 µM | IC50 (HeLa): 0.0883 µM | IC50 (MCF7): 0.0958 µM | IC50 (HepG2): 0.0148 µM | IC50 (HCT-116): 0.0485 µM

CC[C@@]1(O)C(=O)OCc2c1cc1n(c2=O)Cc2cc3c(-c4cc(OC)cc(OC)c4)c4c(cc3nc2-1)OCO4
IC50 (A549): 0.433 µM | IC50 (HeLa): 0.0328 µM | IC50 (MCF7): 0.0297 µM | IC50 (HepG2): 0.0281 µM | IC50 (HCT-116): 0.0223 µM

CCOc1cccc(-c2c3c(cc4nc5c(cc24)Cn2c-5cc4c(c2=O)COC(=O)[C@]4(O)CC)OCO3)c1
IC50 (A549): 0.111 µM | IC50 (HeLa): > 1 µM | IC50 (MCF7): 0.157 µM | IC50 (HepG2): 0.199 µM | IC50 (HCT-116): 0.256 µM

CC[C@@]1(O)C(=O)OCc2c1cc1n(c2=O)Cc2c-1nc1cc3c(cc1c2-c1ccc(C(C)(C)C)cc1)OCO3
IC50 (A549): 0.064 µM | IC50 (HeLa): > 1 µM | IC50 (MCF7): 0.16 µM | IC50 (HepG2): 0.14 µM | IC50 (HCT-116): 0.0832 µM

CC[C@@]1(O)C(=O)OCc2c1cc1n(c2=O)Cc2cc3c(-c4cccc(OC)c4)c4c(cc3nc2-1)OCO4
IC50 (A549): 0.991 µM | IC50 (HeLa): > 1 µM | IC50 (MCF7): > 1 µM | IC50 (HepG2): > 1 µM | IC50 (HCT-116): > 1 µM

CCCOc1ccc(-c2c3c(nc4cc5c(cc24)OCO5)-c2cc4c(c(=O)n2C3)COC(=O)[C@]4(O)CC)cc1
IC50 (A549): 0.225 µM | IC50 (HeLa): > 1 µM | IC50 (MCF7): 0.053 µM | IC50 (HepG2): 0.993 µM | IC50 (HCT-116): 0.562 µM

CC[C@@]1(O)C(=O)OCc2c1cc1n(c2=O)Cc2cc3c(-c4cccc(OC(C)C)c4)c4c(cc3nc2-1)OCO4
IC50 (A549): 0.149 µM | IC50 (HeLa): 0.161 µM | IC50 (MCF7): 0.149 µM | IC50 (HepG2): 0.161 µM | IC50 (HCT-116): 0.183 µM

CC[C@@]1(O)C(=O)OCc2c1cc1n(c2=O)Cc2c-1nc1cc3c(cc1c2-c1cccc(OC(C)C)c1)OCO3
IC50 (A549): 0.4 µM | IC50 (HeLa): 0.143 µM | IC50 (MCF7): 0.0641 µM | IC50 (HepG2): 1 µM | IC50 (HCT-116): 0.793 µM

CCCCOc1ccc(-c2c3c(cc4nc5c(cc24)Cn2c-5cc4c(c2=O)COC(=O)[C@]4(O)CC)OCO3)cc1
IC50 (A549): 0.617 µM | IC50 (HeLa): 0.593 µM | IC50 (MCF7): 0.344 µM | IC50 (HepG2): 0.569 µM | IC50 (HCT-116): 0.782 µM

CC[C@@]1(O)C(=O)OCc2c1cc1n(c2=O)Cc2c-1nc1cc3c(cc1c2-c1ccc2c(c1)OCO2)OCO3
IC50 (A549): 0.0846 µM | IC50 (HeLa): 0.475 µM | IC50 (MCF7): 0.0355 µM | IC50 (HepG2): 0.0611 µM | IC50 (HCT-116): 0.0367 µM

CC[C@@]1(O)C(=O)OCc2c1cc1n(c2=O)Cc2c-1nc1cc3c(cc1c2-c1ccc(C)c(C)c1)OCO3
IC50 (A549): 0.0221 µM | IC50 (HeLa): 0.364 µM | IC50 (MCF7): 0.0453 µM | IC50 (HepG2): 0.064 µM | IC50 (HCT-116): 0.0223 µM

CCCOc1ccc(-c2c3c(cc4nc5c(cc24)Cn2c-5cc4c(c2=O)COC(=O)[C@]4(O)CC)OCO3)cc1
IC50 (A549): 1 µM | IC50 (HeLa): 0.531 µM | IC50 (MCF7): > 1 µM | IC50 (HepG2): > 1 µM | IC50 (HCT-116): 0.564 µM

CC[C@@]1(O)C(=O)OCc2c1cc1n(c2=O)Cc2c-1nc1cc3c(cc1c2-c1ccc(OC(C)C)cc1)OCO3
IC50 (A549): 0.142 µM | IC50 (HeLa): 0.506 µM | IC50 (MCF7): 0.0528 µM | IC50 (HepG2): 0.16 µM | IC50 (HCT-116): < 0.0064 µM

CC[C@@]1(O)C(=O)OCc2c1cc1n(c2=O)Cc2c-1nc1cc3c(cc1c2-c1ccc(C(C)C)cc1)OCO3
IC50 (A549): 0.052 µM | IC50 (HeLa): 0.0614 µM | IC50 (MCF7): 0.122 µM | IC50 (HepG2): 0.825 µM | IC50 (HCT-116): 0.4 µM

CC[C@@]1(O)C(=O)OCc2c1cc1n(c2=O)Cc2cc3c(-c4ccc5c(c4)OCO5)c4c(cc3nc2-1)OCO4
IC50 (A549): 0.111 µM | IC50 (HeLa): 0.0325 µM | IC50 (MCF7): 0.0326 µM | IC50 (HepG2): 0.351 µM | IC50 (HCT-116): 0.0592 µM
